Data taken from PubChem BioAssay (NCI).
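The compound was tested at five concentrations on cells cultured in 96-well plates, with a 48-hour exposure period. TGI: total growth inhibition.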

Columns and labels:
Experiment in all cases: NCI anticancer screen, dose series, 48 h
CAKI-1 renal = system: CAKI-1 renal
CCRF-CEM leukemia = system: CCRF-CEM leukemia
HS 578T breast = system: HS 578T breast
M14 melanoma = system: M14 melanoma
MDA-MB-231 breast = system: MDA-MB-231 breast
MDA-MB-435 = system: MDA-MB-435
NCI-H460 lung = system: NCI-H460 lung
OVCAR-8 ovarian = system: OVCAR-8 ovarian
RXF 393 renal = system: RXF 393 renal
SF-539 CNS = system: SF-539 CNS
T-47D breast = system: T-47D breast
TK-10 renal = system: TK-10 renal
RPMI-8226 leukemia = system: RPMI-8226 leukemia

Cc1cc(-c2nc3cc(O)ccc3s2)ccc1N
TGI (CAKI-1 renal): > 100 µM | TGI (CCRF-CEM leukemia): 96.8 µM | TGI (HS 578T breast): > 100 µM | TGI (M14 melanoma): 52.4 µM | TGI (MDA-MB-231 breast): > 100 µM | TGI (MDA-MB-435): > 100 µM | TGI (NCI-H460 lung): > 100 µM | TGI (OVCAR-8 ovarian): > 100 µM | TGI (RXF 393 renal): > 100 µM | TGI (SF-539 CNS): 49.3 µM | TGI (T-47D breast): 72.3 µM | TGI (TK-10 renal): > 100 µM

COc1ccc2c(c1)N=C1CSC(c3c(Cl)cccc3[N+](=O)[O-])N1C2 (stereo not drawn)
TGI (CAKI-1 renal): > 100 µM | TGI (HS 578T breast): > 100 µM | TGI (M14 melanoma): > 100 µM | TGI (MDA-MB-231 breast): > 100 µM | TGI (MDA-MB-435): > 100 µM | TGI (NCI-H460 lung): 62.9 µM | TGI (OVCAR-8 ovarian): > 100 µM | TGI (RPMI-8226 leukemia): 84.6 µM | TGI (RXF 393 renal): > 100 µM | TGI (SF-539 CNS): > 100 µM | TGI (T-47D breast): > 100 µM | TGI (TK-10 renal): > 100 µM

NS(=O)(=O)c1nnc(/N=C(/CCC(=O)O)C(=O)O)s1
TGI (CAKI-1 renal): > 100 µM | TGI (CCRF-CEM leukemia): > 100 µM | TGI (HS 578T breast): > 100 µM | TGI (M14 melanoma): > 100 µM | TGI (MDA-MB-231 breast): > 100 µM | TGI (MDA-MB-435): > 100 µM | TGI (NCI-H460 lung): > 100 µM | TGI (OVCAR-8 ovarian): > 100 µM | TGI (RPMI-8226 leukemia): > 100 µM | TGI (SF-539 CNS): > 100 µM | TGI (T-47D breast): > 100 µM | TGI (TK-10 renal): > 100 µM

C/C(=N/NC(=S)NCCc1ccccn1)c1cnccn1
TGI (CAKI-1 renal): > 100 µM | TGI (CCRF-CEM leukemia): 68.9 µM | TGI (HS 578T breast): > 100 µM | TGI (M14 melanoma): > 100 µM | TGI (MDA-MB-231 breast): > 100 µM | TGI (MDA-MB-435): > 100 µM | TGI (NCI-H460 lung): > 100 µM | TGI (RPMI-8226 leukemia): 80 µM | TGI (T-47D breast): > 100 µM | TGI (TK-10 renal): > 100 µM

CCCCCCCSCC1C(=O)C23C(O)C1CCC2C12COC3(O)C(O)C1C(C)(C)CCC2O (stereo not drawn)
TGI (CAKI-1 renal): 15.7 µM | TGI (CCRF-CEM leukemia): 14 µM | TGI (M14 melanoma): 24.7 µM | TGI (NCI-H460 lung): 29.8 µM | TGI (OVCAR-8 ovarian): 31.1 µM | TGI (RPMI-8226 leukemia): 27.3 µM | TGI (RXF 393 renal): 27.1 µM | TGI (SF-539 CNS): 29.3 µM | TGI (TK-10 renal): 29.5 µM

O=C1NC(=NC2CCCCC2)C2(CCN(CCCC3(c4ccc(F)cc4)OCCO3)CC2)N1c1ccccc1
TGI (CAKI-1 renal): 50.3 µM | TGI (CCRF-CEM leukemia): > 100 µM | TGI (HS 578T breast): 35 µM | TGI (M14 melanoma): 41.5 µM | TGI (MDA-MB-435): 42.5 µM | TGI (OVCAR-8 ovarian): 64.9 µM | TGI (RPMI-8226 leukemia): 64.5 µM | TGI (RXF 393 renal): 31.1 µM | TGI (SF-539 CNS): 30.7 µM | TGI (T-47D breast): 53.2 µM | TGI (TK-10 renal): 32.7 µM

CC[C@](C)(O)C(=O)O[C@H]1C(=O)O[C@@H]2C[C@H]3C(C)=C[C@H](O)[C@@H](O)[C@]3(C)[C@H]3[C@@]4(O)OC[C@]32[C@@H]1[C@@H](C)[C@H]4O
TGI (CAKI-1 renal): 116 µM | TGI (CCRF-CEM leukemia): 23.9 µM | TGI (NCI-H460 lung): 31.3 µM | TGI (OVCAR-8 ovarian): 136 µM | TGI (RPMI-8226 leukemia): 24.4 µM | TGI (RXF 393 renal): 2.43 µM | TGI (SF-539 CNS): 47.2 µM

Clc1ccccc1-c1nnc2c(-c3ccccc3)nc3ccccc3n12
TGI (CCRF-CEM leukemia): 83.2 µM | TGI (M14 melanoma): > 100 µM | TGI (MDA-MB-231 breast): > 100 µM | TGI (MDA-MB-435): > 100 µM | TGI (NCI-H460 lung): > 100 µM | TGI (RPMI-8226 leukemia): > 100 µM | TGI (RXF 393 renal): > 100 µM | TGI (SF-539 CNS): > 100 µM | TGI (T-47D breast): 69.2 µM | TGI (TK-10 renal): > 100 µM

COc1ccc(NS(=O)c2ccc(OC)cc2)cc1 (stereo not drawn)
TGI (CAKI-1 renal): > 100 µM | TGI (CCRF-CEM leukemia): > 100 µM | TGI (HS 578T breast): > 100 µM | TGI (M14 melanoma): > 100 µM | TGI (MDA-MB-231 breast): > 100 µM | TGI (MDA-MB-435): > 100 µM | TGI (NCI-H460 lung): > 100 µM | TGI (OVCAR-8 ovarian): > 100 µM | TGI (RPMI-8226 leukemia): > 100 µM | TGI (SF-539 CNS): 32.5 µM | TGI (T-47D breast): 82.8 µM | TGI (TK-10 renal): > 100 µM

Nc1ccccc1OCc1cc(=O)c(OCc2ccccc2)co1
TGI (CAKI-1 renal): > 100 µM | TGI (CCRF-CEM leukemia): > 100 µM | TGI (M14 melanoma): > 100 µM | TGI (MDA-MB-231 breast): 55.8 µM | TGI (MDA-MB-435): > 100 µM | TGI (NCI-H460 lung): > 100 µM | TGI (OVCAR-8 ovarian): > 100 µM | TGI (RPMI-8226 leukemia): > 100 µM | TGI (SF-539 CNS): 65.1 µM | TGI (T-47D breast): > 100 µM | TGI (TK-10 renal): 61.2 µM

CC(C)(C)N(Cc1ccoc1)C(=O)/C=C\S(=O)c1ccccc1 (stereo not drawn)
TGI (CAKI-1 renal): 27.6 µM | TGI (CCRF-CEM leukemia): > 100 µM | TGI (HS 578T breast): 68 µM | TGI (M14 melanoma): 40 µM | TGI (MDA-MB-231 breast): 42.3 µM | TGI (MDA-MB-435): 20.7 µM | TGI (OVCAR-8 ovarian): 32.1 µM | TGI (RPMI-8226 leukemia): 89.6 µM | TGI (SF-539 CNS): 42.9 µM | TGI (T-47D breast): 38.2 µM | TGI (TK-10 renal): > 100 µM

CCN1C[C@]2(C)CC[C@H](OCc3ccccc3)C34C5C[C@@H]6CC[C@](O)(C(C[C@@H]32)C14)C5[C@H]6OCc1ccccc1 (stereo partly drawn)
TGI (CCRF-CEM leukemia): > 100 µM | TGI (HS 578T breast): > 100 µM | TGI (M14 melanoma): > 100 µM | TGI (MDA-MB-231 breast): > 100 µM | TGI (MDA-MB-435): > 100 µM | TGI (NCI-H460 lung): > 100 µM | TGI (OVCAR-8 ovarian): > 100 µM | TGI (RPMI-8226 leukemia): > 100 µM | TGI (RXF 393 renal): > 100 µM | TGI (SF-539 CNS): > 100 µM | TGI (T-47D breast): > 100 µM | TGI (TK-10 renal): > 100 µM

O=C(n1c(=O)n(-c2ccc(Cl)cc2)c(=O)n1C(=O)C(Cl)(Cl)Cl)C(Cl)(Cl)Cl
TGI (CAKI-1 renal): > 100 µM | TGI (CCRF-CEM leukemia): > 100 µM | TGI (HS 578T breast): > 100 µM | TGI (MDA-MB-231 breast): > 100 µM | TGI (MDA-MB-435): > 100 µM | TGI (NCI-H460 lung): > 100 µM | TGI (OVCAR-8 ovarian): > 100 µM | TGI (RPMI-8226 leukemia): > 100 µM | TGI (SF-539 CNS): > 100 µM | TGI (T-47D breast): > 100 µM | TGI (TK-10 renal): > 100 µM

O=CC1C[C@@H](N2C(=O)O[C@@H](c3ccccc3)[C@H]2c2ccccc2)[C@@H]1COCc1ccccc1 (stereo partly drawn)
TGI (CAKI-1 renal): > 100 µM | TGI (HS 578T breast): 72.3 µM | TGI (M14 melanoma): 34.2 µM | TGI (MDA-MB-231 breast): 30.7 µM | TGI (MDA-MB-435): 51.4 µM | TGI (NCI-H460 lung): 41.7 µM | TGI (OVCAR-8 ovarian): 55.9 µM | TGI (RPMI-8226 leukemia): > 100 µM | TGI (RXF 393 renal): 46.3 µM | TGI (SF-539 CNS): 37 µM | TGI (TK-10 renal): 44.5 µM

Nc1nc(Cl)cc(NCCCCCCCCCCCCNc2cc(Cl)nc(N)n2)n1
TGI (CCRF-CEM leukemia): > 100 µM | TGI (M14 melanoma): > 100 µM | TGI (NCI-H460 lung): > 100 µM | TGI (OVCAR-8 ovarian): 44 µM | TGI (RPMI-8226 leukemia): > 100 µM | TGI (RXF 393 renal): 44.5 µM | TGI (SF-539 CNS): 72.5 µM | TGI (TK-10 renal): > 100 µM

COc1cc(C2(O)c3ccccc3C3=NCCN32)cc(OC)c1OC (stereo not drawn)
TGI (CAKI-1 renal): > 100 µM | TGI (CCRF-CEM leukemia): > 100 µM | TGI (HS 578T breast): > 100 µM | TGI (MDA-MB-231 breast): > 100 µM | TGI (MDA-MB-435): > 100 µM | TGI (NCI-H460 lung): > 100 µM | TGI (RPMI-8226 leukemia): > 100 µM | TGI (T-47D breast): > 100 µM | TGI (TK-10 renal): > 100 µM

CCN(CC)c1cccc2c1C1(O)CCC3(CC21)OCCCCO3 (stereo not drawn)
TGI (CAKI-1 renal): > 100 µM | TGI (CCRF-CEM leukemia): > 100 µM | TGI (M14 melanoma): > 100 µM | TGI (NCI-H460 lung): > 100 µM | TGI (OVCAR-8 ovarian): > 100 µM | TGI (RPMI-8226 leukemia): > 100 µM | TGI (RXF 393 renal): 53.6 µM | TGI (SF-539 CNS): > 100 µM | TGI (TK-10 renal): > 100 µM

O=C(NCC(C(=O)OCc1ccccc1)C(=O)OCc1ccccc1)OCc1ccccc1
TGI (CAKI-1 renal): > 100 µM | TGI (HS 578T breast): > 100 µM | TGI (M14 melanoma): > 100 µM | TGI (MDA-MB-435): > 100 µM | TGI (NCI-H460 lung): > 100 µM | TGI (OVCAR-8 ovarian): > 100 µM | TGI (RPMI-8226 leukemia): > 100 µM | TGI (RXF 393 renal): > 100 µM | TGI (SF-539 CNS): > 100 µM | TGI (TK-10 renal): > 100 µM

COc1ccc(CCc2ccccc2CC(=O)O)cc1
TGI (CAKI-1 renal): > 100 µM | TGI (CCRF-CEM leukemia): > 100 µM | TGI (M14 melanoma): > 100 µM | TGI (NCI-H460 lung): > 100 µM | TGI (OVCAR-8 ovarian): > 100 µM | TGI (RPMI-8226 leukemia): > 100 µM | TGI (RXF 393 renal): > 100 µM | TGI (SF-539 CNS): > 100 µM | TGI (TK-10 renal): > 100 µM

COc1ccc2c(c1)CCCN1Cc3ccccc3CC21 (stereo not drawn)
TGI (CAKI-1 renal): > 100 µM | TGI (CCRF-CEM leukemia): > 100 µM | TGI (HS 578T breast): > 100 µM | TGI (M14 melanoma): > 100 µM | TGI (MDA-MB-231 breast): > 100 µM | TGI (MDA-MB-435): > 100 µM | TGI (NCI-H460 lung): > 100 µM | TGI (OVCAR-8 ovarian): > 100 µM | TGI (RXF 393 renal): > 100 µM | TGI (SF-539 CNS): > 100 µM | TGI (T-47D breast): > 100 µM | TGI (TK-10 renal): > 100 µM
